Article PMC7571187, “Novel Acetylcholinesterase Inhibitors Based on Uracil Moiety for Possible Treatment of Alzheimer Disease” (Molecules, 2020)

What was measured:
[1] = molecular target: T1, hBChE (BChE from human plasma; serum hBChE) (Homo sapiens, UniProt P06276); assay: Ellman assay, […] nm; format: biochemical
T1 construct: native, commercial from human plasma / serum (Sigma-Aldrich)

[2] = molecular target: T2, hAChE (recombinant human AChE; AChE from human erythrocytes in Table 1) (Homo sapiens, UniProt P22303); assay: Ellman assay, […] nm; format: biochemical
T2 construct: commercial recombinant human AChE (Sigma-Aldrich) per methods
T2 sequence (P22303 32-614): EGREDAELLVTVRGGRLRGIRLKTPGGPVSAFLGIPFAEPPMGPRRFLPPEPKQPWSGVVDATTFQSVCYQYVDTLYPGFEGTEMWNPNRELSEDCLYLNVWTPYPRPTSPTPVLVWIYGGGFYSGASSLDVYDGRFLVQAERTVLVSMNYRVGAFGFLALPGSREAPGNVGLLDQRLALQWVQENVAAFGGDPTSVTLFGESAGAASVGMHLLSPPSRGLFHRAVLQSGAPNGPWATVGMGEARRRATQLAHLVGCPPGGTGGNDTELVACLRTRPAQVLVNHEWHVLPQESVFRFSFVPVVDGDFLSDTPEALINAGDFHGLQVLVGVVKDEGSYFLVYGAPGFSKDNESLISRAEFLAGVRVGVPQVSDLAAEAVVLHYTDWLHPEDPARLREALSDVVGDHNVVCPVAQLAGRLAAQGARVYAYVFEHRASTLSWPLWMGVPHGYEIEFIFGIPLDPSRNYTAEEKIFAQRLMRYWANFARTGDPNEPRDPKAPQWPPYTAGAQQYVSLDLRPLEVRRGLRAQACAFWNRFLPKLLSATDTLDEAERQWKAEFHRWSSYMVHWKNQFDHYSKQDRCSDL

T1 sequence (P06276 29-602): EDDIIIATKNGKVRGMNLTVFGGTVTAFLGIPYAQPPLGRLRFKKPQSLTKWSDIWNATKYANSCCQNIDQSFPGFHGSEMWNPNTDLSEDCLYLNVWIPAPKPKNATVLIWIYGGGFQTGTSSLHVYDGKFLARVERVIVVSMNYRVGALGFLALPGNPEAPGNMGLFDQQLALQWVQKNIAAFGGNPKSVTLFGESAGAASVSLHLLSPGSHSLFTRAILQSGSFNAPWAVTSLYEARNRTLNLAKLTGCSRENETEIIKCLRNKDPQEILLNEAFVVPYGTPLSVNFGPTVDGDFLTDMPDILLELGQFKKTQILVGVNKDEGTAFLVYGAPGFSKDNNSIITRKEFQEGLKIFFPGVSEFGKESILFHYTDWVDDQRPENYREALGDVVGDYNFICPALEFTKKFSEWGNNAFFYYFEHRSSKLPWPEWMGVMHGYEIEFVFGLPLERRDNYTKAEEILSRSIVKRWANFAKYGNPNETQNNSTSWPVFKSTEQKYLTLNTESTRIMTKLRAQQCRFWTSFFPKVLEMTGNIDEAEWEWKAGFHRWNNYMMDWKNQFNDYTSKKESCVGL

Compound | IC50 [1] [nM] | IC50 [2] [nM]
CCN(CCCCn1c(C)cc(=O)n(CCCCN(CC)Cc2ccccc2C#N)c1=O)Cc1ccccc1C#N [2a, 1,3-bis[4-(o-Nitrilebenzylethylamino)butyl]-6-methyluracil] | 65000 | 7 ± 0.5
CCN(CCCCn1c(=O)c2ccccc2n(CCCCN(CC)Cc2ccccc2C#N)c1=O)Cc1ccccc1C#N [4a, 1,3-bis[4-(o-Nitrilebenzylethylamino)butyl]-quinazoline-2,4-dione] | 2620 ± 200 | 5520 ± 400
Cc1cc(=O)n(CCCCCNCc2ccccc2C#N)c(=O)n1CCCCCNCc1ccccc1C#N [compound 3, 1,3-bis[5-(o-Nitrilebenzylamino)pentyl]-6-methyluracil] | 1800 ± 170 | 480 ± 30
Cc1cc(=O)n(CCCCCN=Cc2ccccc2C#N)c(=O)n1CCCCCN=Cc1ccccc1C#N [compound 13, 1,3-bis[5-(o-Nitrilebenzyl)aldiminopentyl]-6-methyluracil] | 2160 ± 150 | 2320 ± 170
